Assay results from US9233979B2, “Compounds that are ERK inhibitors” (Merck Sharp & Dohme Corp., priority 2012, dated 2016).

These compounds were tested against phosphorylated active hERK2 enzyme (Homo sapiens (Human), UniProt P28482) (assay: Active Human ERK2 (hERK2) Activity Assay (IMAP-FP)). Settings: Table 6, 0.5 nM hERK2, 30 μM ATP, 10 point titration, read-out: AERK2 IC50.
Format: biochemical
Experimental: Assays Active Human ERK2 (hERK2) Activity Assay:
Activated ERK2 activity was determined in an IMAP-FP assay (Molecular Devices). […] The final reaction in each well of 25 μL consists of 0.5 nM hERK2, 900 nM unlabeled peptide, 80 nM labeled-peptide, and 30 μM ATP. Phosphorylation reactions were allowed to proceed for 60 minutes and were immediately quenched by the addition of 60 μL IMAP detection beads (1:1000 dilutions) in IMAP binding buffer (Molecular Devices) with 24 mM NaCl. Plates were read on EnVision reader after 60 minutes binding equilibration using Fluorescence Polarization protocol (Perkin Elmer).

Sequence of phosphorylated active hERK2 enzyme (P28482 whole entry): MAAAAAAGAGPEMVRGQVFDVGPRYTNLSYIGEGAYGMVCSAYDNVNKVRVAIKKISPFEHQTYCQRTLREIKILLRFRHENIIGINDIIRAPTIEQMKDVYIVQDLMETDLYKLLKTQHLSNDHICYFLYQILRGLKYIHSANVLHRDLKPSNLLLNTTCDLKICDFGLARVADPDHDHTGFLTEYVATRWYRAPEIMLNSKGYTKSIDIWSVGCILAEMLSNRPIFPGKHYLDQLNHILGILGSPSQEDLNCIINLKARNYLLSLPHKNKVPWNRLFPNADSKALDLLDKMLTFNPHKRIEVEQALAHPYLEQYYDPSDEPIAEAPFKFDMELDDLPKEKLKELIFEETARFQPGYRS

| IC50 [nM] | Compound |
| --- | --- |
| 0.6 | CCNc1n[nH]c2cc(NC(=O)N[C@H](C)c3ccccc3)nc(CO)c12 [Example 70, 1-[3-(ethylamino)-4-(hydroxymethyl)-1H-pyrazolo[4,3-c]-pyridin-6-yl]-3-[(1R)-1-phenylethyl]urea] |
| 4.4 | CCNc1n[nH]c2cc(NC(=O)N[C@H](C)c3ccccc3)nc(COC)c12 [Example 71, (R)-1-(3-(ethylamino)-4-(methoxymethyl)-1H-pyrazolo[4,3-c]pyridin-6-yl)-3-(1-phenylethyl)urea] |
| 106 | COCc1nc(NC(=O)N[C@H](C)c2ccccc2)cc2[nH]nc(NC(C)=O)c12 [Example 72, (R)—N-(4-(methoxymethyl)-6-(3-(1-phenylethyl)ureido)-1H-pyrazolo[4,3-c]pyridin-3-yl)acetamide] |
| 39.2 | C[C@@H](NC(=O)Nc1cc2[nH]nc(NC3=CC(=O)CC3)c2cn1)c1ccccc1 [Example 73, (R)-1-(3-((3-oxocyclopent-1-en-1-yl)amino)-1H-pyrazolo[4,3-c]pyridin-6-yl)-3-(1-phenylethyl)urea] |
| 1.7 | C[C@@H](NC(=O)Nc1cc2[nH]nc(N[C@@H]3CCOC3)c2cn1)c1ccccc1 [Example 74, 1-[(1R)-1-phenylethyl]-3-{3-[(3R)-tetrahydro-furan-3-ylamino]-1H-pyrazolo[4,3-c]-pyridin-6-yl}urea] |
| 0.8 | COC[C@@H](NC(=O)Nc1cc2[nH]nc(N[C@@H]3CCOC3)c2cn1)c1ccccc1 [Example 75, 1-[(1S)-2-methoxy-1-phenylethyl]-3-{3-[(3R)-tetrahydro-furan-3-ylamino]-1H-pyrazolo[4,3-c]-pyridin-6-yl}urea] |
| 1.3 | COC[C@@H](NC(=O)Nc1cc2[nH]nc(N[C@H]3CCOC3)c2cn1)c1ccccc1 [Example 76, 1-[(1S)-2-methoxy-1-phenylethyl]-3-{3-[(3S)-tetrahydro-furan-3-ylamino]-1H-pyrazolo[4,3-c]-pyridin-6-yl}urea] |
| 2.1 | C[C@@H](NC(=O)Nc1cc2[nH]nc(N[C@H]3CCOC3)c2cn1)c1ccccc1 [Example 77, 1-[(1R)-1-phenylethyl]-3-{3-[(3S)-tetrahydro-furan-3-ylamino]-1H-pyrazolo[4,3-c]-pyridin-6-yl}urea] |
| 7.4 | CC1CC(Nc2n[nH]c3cc(NC(=O)N[C@H](C)c4ccccc4)ncc23)C(C)O1 (stereo partly drawn) [Example 78, 1-(3-((2,5-dimethyltetrahydro-furan-3-yl)amino)-1H-pyrazolo[4,3-c]-pyridin-6-yl)-3-((R)-1-phenylethyl)urea] |
| 9.7 | C[C@@H](NC(=O)Nc1cc2[nH]nc(N3CC(O)C3)c2cn1)c1ccccc1 [Example 79, 1-[3-(3-hydroxy-azetidin-1-yl)-1H-pyrazolo[4,3-c]-pyridin-6-yl]-3-[(1R)-1-phenylethyl]urea] |
| 5.5 | COC[C@@H](NC(=O)Nc1cc2[nH]nc(N3CC(O)C3)c2cn1)c1ccccc1 [Example 80, 1-[3-(3-hydroxy-azetidin-1-yl)-1H-pyrazolo[4,3-c]-pyridin-6-yl]-3-[(1S)-2-methoxy-1-phenylethyl]urea] |
| 8.5 | COCC1CN(c2n[nH]c3cc(NC(=O)N[C@H](C)c4ccccc4)ncc23)C1 [Example 81, 1-{3-[3-(methoxy-methyl)azetidin-1-yl]-1H-pyrazolo[4,3-c]-pyridin-6-yl}-3-[(1R)-1-phenylethyl]-urea] |
| 3.7 | COCC1CN(c2n[nH]c3cc(NC(=O)N[C@H](COC)c4ccccc4)ncc23)C1 [Example 82, 1-{3-[3-(methoxy-methyl)azetidin-1-yl]-1H-pyrazolo[4,3-c]-pyridin-6-yl}-3-[(1S)-2-methoxy-1-phenylethyl]urea] |
| 2.7 | C[C@@H](NC(=O)Nc1cc2[nH]nc(N3CC(CO)C3)c2cn1)c1ccccc1 [Example 83, 1-{3-[3-(hydroxyl-methyl)azetidin-1-yl]-1H-pyrazolo[4,3-c]-pyridin-6-yl}-3-[(1R)-1-phenylethyl]-urea] |
| 4.4 | C[C@@H](NC(=O)Nc1cc2[nH]nc(N[C@@H]3COC[C@@H]3F)c2cn1)c1ccccc1 [Example 84, 1-(3-{[(3R,4R)-4-fluorotetrahydrofuran-3-yl]amino}-1H-pyrazolo[4,3-c]-pyridin-6-yl)-3-[(1R)-1-phenylethyl]urea] |
| 0.8 | C[C@@H](NC(=O)Nc1cc2[nH]nc(N[C@H]3COC[C@H]3F)c2cn1)c1ccccc1 [Example 85, 1-(3-{[(3S,4S)-4-fluorotetrahydrofuran-3-yl]amino}-1H-pyrazolo[4,3-c]-pyridin-6-yl)-3-[(1R)-1-phenylethyl]urea] |
| 4.7 | C[C@H](Nc1n[nH]c2cc(NC(=O)N[C@H](C)c3ccccc3)ncc12)c1ccccn1 [Example 86, 1-[(1R)-1-phenylethyl]-3-(3-{[(1S)-1-pyridin-2-ylethyl]amino}-1H-pyrazolo[4,3-c]-pyridin-6-yl)urea] |

| IC50 [nM] | Compound |
| --- | --- |
| 13.4 | C[C@@H](NC(=O)Nc1cc2[nH]nc(N[C@H](C)c3ccccn3)c2cn1)c1ccccc1 [Example 87, 1-[(1R)-1-phenylethyl]-3-(3-{[(1R)-1-pyridin-2-ylethyl]amino}-1H-pyrazolo[4,3-c]-pyridin-6-yl)urea] |
| 3.6 | C[C@@H](NC(=O)Nc1cc2[nH]nc(N[C@@H]3COC[C@H]3F)c2cn1)c1ccccc1 [Example 88, 1-(3-{[(3R,4S)-4-fluorotetrahydrofuran-3-yl]amino}-1H-pyrazolo[4,3-c]-pyridin-6-yl)-3-[(1R)-1-phenylethyl]urea] |
| 9.1 | C[C@@H](NC(=O)Nc1cc2[nH]nc(N3CCC4(CC3)COC4)c2cn1)c1ccccc1 [Example 89, 1-[3-(2-oxa-7-azaspiro[3.5]non-7-yl)-1H-pyrazolo[4,3-c]pyridin-6-yl]-3-[(1R)-1-phenylethyl]-urea] |
| 14.9 | C[C@@H](NC(=O)Nc1cc2[nH]nc(N3CC[C@@H]3C)c2cn1)c1ccccc1 [Example 90, 1-{3-[(2S)-2-methylazetidin-1-yl]-1H-pyrazolo[4,3-c]-pyridin-6-yl}-3-[(1R)-1-phenylethyl]-urea] |
| 52 | C[C@@H]1CCN1c1n[nH]c2cc(NC(=O)N[C@H](C)c3ccccc3)ncc12 [Example 91, 1-{3-[(2R)-2-methylazetidin-1-yl]-1H-pyrazolo[4,3-c]-pyridin-6-yl}-3-[(1R)-1-phenylethyl]-urea] |
| 27.3 | C[C@@H](NC(=O)Nc1cc2[nH]nc(N3CC(C)(O)C3)c2cn1)c1ccccc1 [Example 92, 1-[3-(3-hydroxy-3-methylazetidin-1-yl)-1H-pyrazolo[4,3-c]-pyridin-6-yl]-3-[(1R)-1-phenylethyl]urea] |
| 9.9 | C[C@@H](NC(=O)Nc1cc2[nH]nc(N3CC(C#N)C3)c2cn1)c1ccccc1 [Example 93, 1-[3-(3-cyanoazetidin-1-yl)-1H-pyrazolo[4,3-c]-pyridin-6-yl]-3-[(1R)-1-phenylethyl]urea] |
| 25.4 | C[C@@H](NC(=O)Nc1cc2[nH]nc(N3CC(C(C)(C)O)C3)c2cn1)c1ccccc1 [Example 94, 1-{3-[3-(1-hydroxy-1-methylethyl)-azetidin-1-yl]-1H-pyrazolo[4,3-c]-pyridin-6-yl}-3-[(1R)-1-phenylethyl]-urea] |
| 0.2 | C[C@@H](O)[C@@H](NC(=O)Nc1cc2[nH]nc(N3CCOCC3)c2cn1)c1ccc(F)cc1 [Example 97, 1-[(1S,2R)-1-(4-fluorophenyl)-2-hydroxypropyl]-3-(3-morpholin-4-yl-1H-pyrazolo[4,3-c]-pyridin-6-yl)urea] |
| 0.2 | C[C@H](O)[C@@H](NC(=O)Nc1cc2[nH]nc(N3CCOCC3)c2cn1)c1ccc(F)cc1 [Example 98, 1-[(1S,2S)-1-(4-fluorophenyl)-2-hydroxypropyl]-3-(3-morpholin-4-yl-1H-pyrazolo[4,3-c]-pyridin-6-yl)urea] |
| 0.6 | CC(C)(O)[C@@H](NC(=O)Nc1cc2[nH]nc(N3CCOC(C(F)(F)F)C3)c2cn1)c1ccccc1 (stereo partly drawn) [Example 99, 1-[(1S)-2-hydroxy-2-methyl-1-phenylpropyl]-3-{3-[2-(trifluoromethyl)-morpholin-4-yl]-1H-pyrazolo[4,3-c]-pyridin-6-yl}urea] |
| 1.1 | CC(C)(O)[C@@H](NC(=O)Nc1cc2[nH]nc(N3CCC3)c2cn1)c1ccc(F)cc1 [Example 100, 1-(3-azetidin-1-yl-1H-pyrazolo[4,3-c]-pyridin-6-yl)-3-[(1S)-1-(4-fluorophenyl)-2-hydroxy-2-methylpropyl]urea] |
| 0.9 | CC(C)(O)[C@@H](NC(=O)Nc1cc2[nH]nc(N3CCC3)c2c(CO)n1)c1ccc(F)cc1 [Example 101, 1-[3-azetidin-1-yl-4-(hydroxymethyl)-1H-pyrazolo[4,3-c]-pyridin-6-yl]-3-[(1S)-1-(4-fluorophenyl)-2-hydroxy-2-methylpropyl]urea] |
| 2.7 | C[C@H]1CN(c2n[nH]c3cc(NC(=O)N[C@@H](c4ccccc4)C(C)(C)O)ncc23)C[C@H](C(F)(F)F)O1 [Example 102, 1-[(1S)-2-hydroxy-2-methyl-1-phenylpropyl]-3-{3-[(2S,6R)-2-methyl-6-(trifluoromethyl)-morpholin-4-yl]-1H-pyrazolo[4,3-c]-pyridin-6-yl}urea] |
| 1.1 | C[C@@H]1CN(c2n[nH]c3cc(NC(=O)N[C@@H](c4ccccc4)C(C)(C)O)ncc23)C[C@H](C(F)(F)F)O1 [Example 103, 1-[(1S)-2-hydroxy-2-methyl-1-phenylpropyl]-3-{3-[(2R,6R)-2-methyl-6-(trifluoromethyl)-morpholin-4-yl]-1H-pyrazolo[4,3-c]-pyridin-6-yl}urea] |
| 1.6 | CC(C)(O)[C@@H](NC(=O)Nc1cc2[nH]nc(N3CCC3)c2cn1)c1ccccc1 [Example 104, 1-(3-azetidin-1-yl-1H-pyrazolo[4,3-c]pyridin-6-yl)-3-[(1S)-2-hydroxy-2-methyl-1-phenylpropyl]urea] |
